Assay results as given in patent US9844519B1, “Method of treating TDP-43 proteinopathies using hexachlorophene” (University of South Florida, priority 2014, dated 2017).
Like-named read-outs stand apart in the source and are kept apart here. Peptide text beside a SMILES is read from it. * marks the point of attachment. Cbz = O=C(OCc1ccccc1)*

How the values were obtained:
[1] = molecular target: T1, TDP-43 (Mus musculus, UniProt Q921F2); experiment: InCell Western (ICW) drug screen for TDP-43 levels in N9 cells; assay type: cell-based; conditions: for % TDP43 level: N9 cells treated 24 hours, DMSO vehicle control = 100
T1 construct: N9 cells expressing endogenous TDP-43 were treated with various concentrations of B10; endogenous in cells; host or cells: N9 mouse microglial cells
Experimental: To optimize the ICW technique for screening TDP-43 targeting drugs, N9 cells were seeded in a 96-well plate and processed for ICW by using various dilution of TDP-43 antibody.
For drug screening, N9 cells were treated with a panel of candidate drug molecules for 24 hours and the effect on TDP-43 levels was analyzed using the InCell Western assay.
To optimize TDP-43 targeting ICW, N9 cells were seeded in a 96-well plate and probed with different dilutions of TDP-43 antibody as previously described (Jinwal and Dickey, 2011). For the identification of candidate drug molecules, N9 cells were treated with an array of drugs for 24 hours and processed for ICW (Jinwal and Dickey, 2011). In brief, cells were fixed, washed with PBS and incubated in blocking buffer. Cells were then incubated in primary antibody to TDP-43 (1:1000) and GAPDH (1:3000) for overnight. After washing with 0.2% Tween-20 PBS, cells were incubated with fluorescently tagged secondary antibodies for 1 hour and 30 minutes. Fluorescence intensity was then recorded and quantified using the Odyssey Infrared Imaging System (LI-COR). ICW experiments were performed in duplicate.

[2] = molecular target: T2, C25 mutant of TDP-43 (Homo sapiens, UniProt Q13148); experiment: Immunofluorescence of cytoplasmic C25 mutant TDP-43 in HEK293 cells; assay type: cell-based; conditions: 3 μM, 24 hours
T2 construct: the C25 cleaved fragment that localizes to the cytosol; expressed in transfected cells; host or cells: HEK293
Experimental: 24 hours after transfection, the medium was replaced and cells were treated with either DMSO or 3 μM B10 for 24 hours. […] Following three washes in PBS, cells were incubated in blocking buffer (1% BSA, 0.1% Tween-20 in PBS) for one hour. A mouse monoclonal antibody to the Myc tag at a dilution of 1:400 was applied for 1 hour. After three washes in PBS, cells were incubated with an Alexa488 tagged goat anti-mouse IgG secondary antibody at 1:800 for 1 hour. […] Coverslips were mounted on slides using Fluoromount G. Imaging was performed with a Zeiss AxioVision imager.

[3] = test system: Wnt-β-catenin signaling pathway; conditions: B lymphoma cells; cited from earlier work
[4] = molecular target: T3, endogenous TDP-43 (Mus musculus, UniProt Q921F2); experiment: Western blotting of endogenous TDP-43 in N9 cells, dose response; assay type: cell-based; conditions: 3 μM, 24 hours, Western blot
T3 construct: N9 cells expressing endogenous TDP-43 were treated with various concentrations of B10; endogenous in cells; host or cells: N9 mouse microglial cells
Experimental: N9 cells were treated with different concentration of B10 for 24 hours and levels of endogenous TDP-43 were determined by Western blotting.
For dose response experiments, N9 cells were treated with different concentrations of B10 for 24 hours. […] An equivalent volume of DMSO was used for control treatments for both sets of experiments. […] Briefly, cells were lysed in Mammalian-Protein Extraction Reagent (M-PER; Pierce, Rockford, Ill.) containing 1× protease inhibitor mixture (Calbiochem, Billerica, Mass.), 1 mM phenylmethylsulfonyl fluoride (PMSF) and 1× phosphatase inhibitor I and II cocktails (Sigma). Protein concentration was determined using the Coomassie (Bradford) Protein Assay Kit (Pierce). Samples were analyzed for Myc and GAPDH by Western blotting. […] Drug treatment experiments were repeated at least two times.

[5] = molecular target: T4, amyloid beta (Aβ) (Homo sapiens, UniProt P05067); conditions: cited from earlier work
T4 construct: the amyloid protein (Aβ) which is a proteolytic product of a precursor protein of much larger size

[6] = molecular target: T5, endogenous TDP-43 (Homo sapiens, UniProt Q13148); experiment: Western blotting of endogenous TDP-43 in HEK293 cells; assay type: cell-based; conditions: endogenous TDP-43, 3 μM, 24 hours, Western blot
T5 construct: HEK293 cells expressing endogenous TDP-43 and FUS; endogenous in cells; host or cells: HEK293
Experimental: (§1) HEK293 cells were treated with 3 and 10 μM B10 for 24 hours. An equivalent volume of DMSO was used for control treatments. […] Briefly, cells were lysed in Mammalian-Protein Extraction Reagent (M-PER; Pierce, Rockford, Ill.) containing 1× protease inhibitor mixture (Calbiochem, Billerica, Mass.), 1 mM phenylmethylsulfonyl fluoride (PMSF) and 1× phosphatase inhibitor I and II cocktails (Sigma). Protein concentration was determined using the Coomassie (Bradford) Protein Assay Kit (Pierce). Samples were analyzed using TDP-43, FUS, and GAPDH antibodies by Western blotting. Drug treatment experiments were performed in triplicate. For ubiquitinated protein analysis upon MG132 treatment, ubiquitin antibody (Santa Cruz Biotechnology) was used. Statistical analysis was performed using Microsoft Excel.

[7] = test system: primary neuronal cultures; conditions: cited from earlier work
[8] = test system: FUS (Fused in Sarcoma); experiment: Western blotting of endogenous FUS in HEK293 cells; assay type: cell-based
Experimental: as §1

[9] = dose of about 10 mg/kg, transgenic TDP43 mouse model; cited from earlier work
[10] = test system: ubiquitinated proteins; experiment: Western blot of ubiquitinated proteins in HEK293 cell samples; assay type: cell-based; conditions: HEK293 samples from FIG. 4A, 24 hours, ubiquitin antibody
Experimental: as §1

[11] = test system: HEK293 cells; assay type: cell-based; conditions: human, 24 h
Experimental: (§2) Whether B10 treatment causes cytotoxicity was next tested. The inventors performed the LDH assay with N9 and HEK293 cells. […] B10 causes ˜3% and ˜13% cytotoxicity at 3 and 10 μM in the HEK293 cells, respectively (FIG. 5B).
(§3) The LDH assay was performed using the CytoTox 96 Non-Radioactive Cytotoxicity Assay from Promega as per manufacturer's instructions. Briefly, N9 and HEK cells were treated with different concentrations of hexachlorophene for 24 hours. Cells treated with a lethal dose of 150 μM hexachlorophene were used as the maximal LDH release control. Culture supernatant was collected and centrifuged at 2000 rpm to pellet debris. 50 μl of supernatant from each sample was transferred to a flat-bottom 96 well plate. The Substrate Mix provided in the kit was reconstituted with Assay Buffer. 50 μl of the reconstituted Substrate Mix was added to the culture supernatant. The plate was incubated at room temperature, protected from light, for 30 minutes. 50 μl of Stop Solution was added to each well at the end of the incubation period. Absorbance was read at 490 nm. The experiment was performed in triplicate for each cell line. Statistical analysis was performed using Microsoft Excel.

[12] = test system: N9 cells; assay type: cell-based; conditions: mouse, 24 h
Experimental: as §2, §3

[13] = molecular target: T6, C25-TDP-43 (Homo sapiens, UniProt Q13148); experiment: Fluorescence microscopy of C25-TDP-43 aggregates in head neurons of transgenic C. elegans; assay type: in vivo; conditions: C25 worms
T6 construct: a C. elegans model expressing the C25 fragment; expressed in transfected cells; host or cells: transgenic C. elegans (neurons)
Experimental: (§4) For in vivo studies the inventors used a C. elegans model expressing the C25 fragment to analyze changes in behavior and pathological TDP-43 upon B10 treatment.
(§5) The Solid Method of drug dosing was used in which age-synchronized C. elegans eggs were plated on Nematode Growth Media (NGM) plates containing DMSO vehicle or 5 μM B10 or 10 μM B10.
(§6) A behavioral assay that measures liquid thrashing ability was used to analyze the effect of B10 treatment on motility in age synchronized C25 animals. For microscopic analysis adult worms were fixed on slide and imaged using fluorescence microscopy.

[14] = test system: C25-TDP-43 transgenic C. elegans; experiment: Liquid thrashing motility assay in C25-TDP-43 transgenic C. elegans; assay type: in vivo; conditions: C25 worms on NGM plates containing 5 μM or 10 μM B10
Experimental: as §4, §5, §6

[15] = test system: Myc-tagged WT TDP-43, C25 mutant, M337V and Q331K; experiment: Western blotting of Myc-tagged WT and mutant TDP-43 transfected in HEK293 cells; assay type: cell-based; conditions: HEK293 cells transfected with Myc-tagged WT, 3 μM, 24 hours
[16] = test system: rats; conditions: pre-treatment prior to administration of B10; cited from earlier work

T1 sequence (Q921F2 whole entry): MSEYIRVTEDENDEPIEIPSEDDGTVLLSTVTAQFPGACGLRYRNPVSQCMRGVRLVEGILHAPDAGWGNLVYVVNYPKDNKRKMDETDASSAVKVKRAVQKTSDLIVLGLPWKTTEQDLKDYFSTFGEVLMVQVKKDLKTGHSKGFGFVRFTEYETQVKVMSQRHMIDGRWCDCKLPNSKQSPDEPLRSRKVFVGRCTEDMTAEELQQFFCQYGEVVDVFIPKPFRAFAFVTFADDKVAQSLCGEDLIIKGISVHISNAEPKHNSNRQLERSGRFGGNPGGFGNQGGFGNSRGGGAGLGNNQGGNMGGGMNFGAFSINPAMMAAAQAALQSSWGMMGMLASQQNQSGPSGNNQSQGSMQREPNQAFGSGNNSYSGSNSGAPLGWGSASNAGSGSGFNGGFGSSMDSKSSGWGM
T4 sequence (P05067 672-713 limits assumed): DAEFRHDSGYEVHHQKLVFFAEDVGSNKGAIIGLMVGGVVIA
T3 sequence (Q921F2 whole entry): as the sequence (Q921F2 whole entry) above
T5 sequence (Q13148 whole entry): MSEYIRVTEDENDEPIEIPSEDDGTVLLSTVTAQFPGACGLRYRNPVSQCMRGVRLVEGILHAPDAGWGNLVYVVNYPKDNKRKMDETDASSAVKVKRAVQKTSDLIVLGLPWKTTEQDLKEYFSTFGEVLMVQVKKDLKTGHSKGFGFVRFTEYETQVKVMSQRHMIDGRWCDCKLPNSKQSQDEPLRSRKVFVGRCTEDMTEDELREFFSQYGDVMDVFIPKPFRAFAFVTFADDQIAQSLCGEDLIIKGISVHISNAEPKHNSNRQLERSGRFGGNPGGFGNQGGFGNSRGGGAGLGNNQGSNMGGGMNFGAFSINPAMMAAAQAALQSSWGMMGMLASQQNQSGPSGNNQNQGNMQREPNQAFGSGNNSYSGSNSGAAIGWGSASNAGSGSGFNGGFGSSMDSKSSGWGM
T2 sequence (Q13148 219-414 limits assumed, change not shown): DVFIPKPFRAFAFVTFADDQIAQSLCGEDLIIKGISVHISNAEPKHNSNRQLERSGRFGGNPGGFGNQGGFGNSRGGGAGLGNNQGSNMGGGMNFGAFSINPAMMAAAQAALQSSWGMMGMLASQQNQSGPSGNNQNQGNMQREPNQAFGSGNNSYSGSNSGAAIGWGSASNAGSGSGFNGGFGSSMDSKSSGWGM
T6 sequence (Q13148 219-414 limits assumed): as the sequence (Q13148 219-414 limits assumed, change not shown) above

OCCN1CCN(CCCN2c3ccccc3Sc3ccc(Cl)cc32)CC1 [B5, Perphenazine]
% TDP43 level [1]: 85%

CO[C@H]1/C=C/O[C@@]2(C)Oc3c(C)c(O)c4c(O)c(c(/C=N/N5CCN(C)CC5)c(O)c4c3C2=O)NC(=O)/C(C)=C\C=C\[C@H](C)[C@H](O)[C@@H](C)[C@@H](O)[C@@H](C)[C@H](OC(C)=O)[C@@H]1C [B6, Rifampicin]
% TDP43 level [1]: 103%

Nc1ccc(S(=O)(=O)c2ccc(N)cc2)cc1 [B7, Dapsone]
% TDP43 level [1]: 100%

NS(=O)(=O)c1cc2c(cc1C(F)(F)F)NCNS2(=O)=O [B8, Hydroflumethiazide]
% TDP43 level [1]: 89%

Oc1c(Cl)cc(Cl)c(Cl)c1Cc1c(O)c(Cl)cc(Cl)c1Cl [B10, Hexachlorophene]
amount of cytoplasmic C25 mutant TDP-43 [2]: decreases the amount of cytoplasmic C25 mutant TDP-43 | effect on Wnt-β-catenin signaling pathway [3]: inhibit the Wnt-β-catenin signaling pathway in B lymphoma cells | reduction of endogenous TDP-43 levels [4]: approximately 50% | effect on Aβ fibril formation [5]: inhibit amyloid beta (Aβ) fibril formation | reduction of TDP-43 levels [6]: ~50% | protection from Aβ-induced toxicity [7]: protect primary neuronal cultures from Aβ-induced toxicity | effect on levels of FUS [8]: increases levels of FUS | increase of FUS levels ([8]; 3 μM, 24 hours, Western blot): ~300% | % TDP43 level [1]: 63% | decrease in levels of TDP-43 compared to the control ([1]; N9 cells, 24 hours): ~40% | brain permeability [9]: 50% | levels of ubiquitinated proteins [10]: slight increase in ubiquitinated proteins | cytotoxicity (LDH release) ([11]; 3 μM): ~3% | cytotoxicity (LDH release) ([11]; 10 μM): ~13% | cytotoxicity (LDH release) ([12]; 3 μM): ~6% | cytotoxicity (LDH release) ([12]; 10 μM): ~23% | accumulation of TDP-43 in neurons in the head region [13]: decreased the accumulation of TDP-43 in the neurons in the head region of C25 worms | motility (liquid thrashing) [14]: improved motility of C25 worms | decrease in levels of TDP-43 and its mutants [15]: approximately 50%

C[N+](C)(C)C[C@H](O)CC(=O)[O-] [L-carnitine]
protection from toxicity induced by B10 [16]: protected rats from the toxicity of B10

CC(C)C[C@@H](C=O)NC(=O)[C@H](CC(C)C)NC(=O)[C@H](CC(C)C)NC(=O)OCc1ccccc1 [MG132] (Cbz-Leu-Leu-Leu-aldehyde)
levels of ubiquitinated proteins [10]: increase in ubiquitinated proteins

CCCC(C(=O)OCCN(CC)CC)(c1ccccc1)c1ccccc1.Cl [SKF-525A, 2-diethylaminoethyl-2,2-diphenylvalerate-Hcl]
protection from toxicity induced by B10 [16]: lessened toxicity

CCOc1ccc2c(c1)C(C)=CC(C)(C)N2 [ethoxyquin]
protection from toxicity induced by B10 [16]: protects rats from toxicity induced by B10
